{
  "source": "PubChem BioAssay AID1963450",
  "about": "(Molecular Pharmacology Branch, DTP, NCI, 2024)",
  "system": "556581-035-R-J1-PDC complex spheroid growth",
  "test": "Anticancer human tumor 556581-035-R-J1-PDC patient-derived ovarian carcinoma cell line growth inhibition [Asc]",
  "settings": "for pIC50: curve of first compound; for viability, T/C: stronger effect = lower value",
  "how_it_was_run": "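Tumor cells were grown as complex spheroids with human endothelial cells (HUVEC) and human mesenchymal stem cells as stroma. Agents were tested alone and in combination, in half-log steps down from the clinical Cmax, or from 10 microM where Cmax was unknown.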",
  "key": {"[1]": {"settings": "second compound 0.03 µM, first compound 0.0316 µM"}, "[2]": {"settings": "second compound 0.03 µM, first compound 0.1 µM"}, "[3]": {"settings": "second compound 0.03 µM, first compound 0.316 µM"}, "[4]": {"settings": "second compound 0.03 µM, first compound 1 µM"}, "[5]": {"settings": "second compound 0.03 µM, first compound 3.16 µM"}, "[6]": {"settings": "second compound 0.03 µM, first compound 10 µM"}, "[7]": {"settings": "second compound 0.0949 µM, first compound 0.0316 µM"}, "[8]": {"settings": "second compound 0.0949 µM, first compound 0.1 µM"}, "[9]": {"settings": "second compound 0.0949 µM, first compound 0.316 µM"}, "[10]": {"settings": "second compound 0.0949 µM, first compound 1 µM"}, "[11]": {"settings": "second compound 0.0949 µM, first compound 3.16 µM"}, "[12]": {"settings": "second compound 0.0949 µM, first compound 10 µM"}, "[13]": {"settings": "second compound 0.3 µM, first compound 0.0316 µM"}, "[14]": {"settings": "second compound 0.3 µM, first compound 0.1 µM"}, "[15]": {"settings": "second compound 0.3 µM, first compound 0.316 µM"}, "[16]": {"settings": "second compound 0.3 µM, first compound 1 µM"}, "[17]": {"settings": "second compound 0.3 µM, first compound 3.16 µM"}, "[18]": {"settings": "second compound 0.3 µM, first compound 10 µM"}, "[19]": {"settings": "second compound 0.949 µM, first compound 0.0316 µM"}, "[20]": {"settings": "second compound 0.949 µM, first compound 0.1 µM"}, "[21]": {"settings": "second compound 0.949 µM, first compound 0.316 µM"}, "[22]": {"settings": "second compound 0.949 µM, first compound 1 µM"}, "[23]": {"settings": "second compound 0.949 µM, first compound 3.16 µM"}, "[24]": {"settings": "second compound 0.949 µM, first compound 10 µM"}, "[25]": {"settings": "second compound 3 µM, first compound 0.0316 µM"}, "[26]": {"settings": "second compound 3 µM, first compound 0.1 µM"}, "[27]": {"settings": "second compound 3 µM, first compound 0.316 µM"}, "[28]": {"settings": "second compound 3 µM, first compound 1 µM"}, "[29]": {"settings": "second compound 3 µM, first compound 3.16 µM"}, "[30]": {"settings": "second compound 3 µM, first compound 10 µM"}},
  "note": "pIC50: −log10 of the molar value.",
  "data": [
    {"compound": "C#Cc1c(F)ccc2cc(O)cc(-c3ncc4c(N5CC6CCC(C5)N6)nc(OCC56CCCN5CC(F)C6)nc4c3F)c12", "note": "(stereo not given) + CCN1C(C(=O)NC23CCC(C(=O)O)(CC2)CC3)C(c2cccc(Cl)c2F)C2(C(=O)Nc3cc(Cl)ccc32)C12CCCCC2;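 further: spheroids exposed to agents for 7 days before viability read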", "values": [
      {"measurement": "pIC50", "setting": "second compound 0.03 µM", "result": "< 5.00"},
      {"measurement": "pIC50", "setting": "second compound 0.0949 µM", "result": "< 5.00"},
      {"measurement": "pIC50", "setting": "second compound 0.3 µM", "result": "< 5.00"},
      {"measurement": "pIC50", "setting": "second compound 0.949 µM", "result": "< 5.00"},
      {"measurement": "pIC50", "setting": "second compound 3 µM", "result": "< 5.00"},
      {"measurement": "viability, T/C", "setting": "[1]", "result": 98.9, "unit": "%"},
      {"measurement": "viability, T/C", "setting": "[2]", "result": 86, "unit": "%"},
      {"measurement": "viability, T/C", "setting": "[3]", "result": 102, "unit": "%"},
      {"measurement": "viability, T/C", "setting": "[4]", "result": 89.6, "unit": "%"},
      {"measurement": "viability, T/C", "setting": "[5]", "result": 96.7, "unit": "%"},
      {"measurement": "viability, T/C", "setting": "[6]", "result": 89.6, "unit": "%"},
      {"measurement": "viability, T/C", "setting": "[7]", "result": 105, "unit": "%"},
      {"measurement": "viability, T/C", "setting": "[8]", "result": 83.2, "unit": "%"},
      {"measurement": "viability, T/C", "setting": "[9]", "result": 93.9, "unit": "%"},
      {"measurement": "viability, T/C", "setting": "[10]", "result": 79.5, "unit": "%"},
      {"measurement": "viability, T/C", "setting": "[11]", "result": 91, "unit": "%"},
      {"measurement": "viability, T/C", "setting": "[12]", "result": 61.9, "unit": "%"},
      {"measurement": "viability, T/C", "setting": "[13]", "result": 80.2, "unit": "%"},
      {"measurement": "viability, T/C", "setting": "[14]", "result": 66.7, "unit": "%"},
      {"measurement": "viability, T/C", "setting": "[15]", "result": 75, "unit": "%"},
      {"measurement": "viability, T/C", "setting": "[16]", "result": 86.1, "unit": "%"},
      {"measurement": "viability, T/C", "setting": "[17]", "result": 83.3, "unit": "%"},
      {"measurement": "viability, T/C", "setting": "[18]", "result": 61.8, "unit": "%"},
      {"measurement": "viability, T/C", "setting": "[19]", "result": 86.6, "unit": "%"},
      {"measurement": "viability, T/C", "setting": "[20]", "result": 80.3, "unit": "%"},
      {"measurement": "viability, T/C", "setting": "[21]", "result": 85.7, "unit": "%"},
      {"measurement": "viability, T/C", "setting": "[22]", "result": 74.9, "unit": "%"},
      {"measurement": "viability, T/C", "setting": "[23]", "result": 76.3, "unit": "%"},
      {"measurement": "viability, T/C", "setting": "[24]", "result": 78.5, "unit": "%"},
      {"measurement": "viability, T/C", "setting": "[25]", "result": 95.8, "unit": "%"},
      {"measurement": "viability, T/C", "setting": "[26]", "result": 102, "unit": "%"},
      {"measurement": "viability, T/C", "setting": "[27]", "result": 76, "unit": "%"},
      {"measurement": "viability, T/C", "setting": "[28]", "result": 78, "unit": "%"},
      {"measurement": "viability, T/C", "setting": "[29]", "result": 70.1, "unit": "%"},
      {"measurement": "viability, T/C", "setting": "[30]", "result": 78.6, "unit": "%"}
    ]},
    {"compound": "C=C(F)C(=O)N1CCN(c2nc(OCC3CCCN3C)nc3c2CCN(c2cccc4cccc(Cl)c24)C3)CC1CC#N", "note": "(stereo not given) + CCN1C(C(=O)NC23CCC(C(=O)O)(CC2)CC3)C(c2cccc(Cl)c2F)C2(C(=O)Nc3cc(Cl)ccc32)C12CCCCC2", "values": [
      {"measurement": "pIC50", "setting": "second compound 0.03 µM", "result": 5.42},
      {"measurement": "pIC50", "setting": "second compound 0.0949 µM", "result": 5.41},
      {"measurement": "pIC50", "setting": "second compound 0.3 µM", "result": 5.41},
      {"measurement": "pIC50", "setting": "second compound 0.949 µM", "result": 5.36},
      {"measurement": "pIC50", "setting": "second compound 3 µM", "result": 5.57},
      {"measurement": "viability, T/C", "setting": "[1]", "result": 92.1, "unit": "%"},
      {"measurement": "viability, T/C", "setting": "[2]", "result": 97.3, "unit": "%"},
      {"measurement": "viability, T/C", "setting": "[3]", "result": 112, "unit": "%"},
      {"measurement": "viability, T/C", "setting": "[4]", "result": 94.5, "unit": "%"},
      {"measurement": "viability, T/C", "setting": "[5]", "result": 59, "unit": "%"},
      {"measurement": "viability, T/C", "setting": "[6]", "result": 3.04, "unit": "%"},
      {"measurement": "viability, T/C", "setting": "[7]", "result": 114, "unit": "%"},
      {"measurement": "viability, T/C", "setting": "[8]", "result": 102, "unit": "%"},
      {"measurement": "viability, T/C", "setting": "[9]", "result": 90.8, "unit": "%"},
      {"measurement": "viability, T/C", "setting": "[10]", "result": 87.8, "unit": "%"},
      {"measurement": "viability, T/C", "setting": "[11]", "result": 62.5, "unit": "%"},
      {"measurement": "viability, T/C", "setting": "[12]", "result": 3.7, "unit": "%"},
      {"measurement": "viability, T/C", "setting": "[13]", "result": 103, "unit": "%"},
      {"measurement": "viability, T/C", "setting": "[14]", "result": 92.5, "unit": "%"},
      {"measurement": "viability, T/C", "setting": "[15]", "result": 103, "unit": "%"},
      {"measurement": "viability, T/C", "setting": "[16]", "result": 81.6, "unit": "%"},
      {"measurement": "viability, T/C", "setting": "[17]", "result": 61.4, "unit": "%"},
      {"measurement": "viability, T/C", "setting": "[18]", "result": 3.01, "unit": "%"},
      {"measurement": "viability, T/C", "setting": "[19]", "result": 91.7, "unit": "%"},
      {"measurement": "viability, T/C", "setting": "[20]", "result": 99.2, "unit": "%"},
      {"measurement": "viability, T/C", "setting": "[21]", "result": 98.3, "unit": "%"},
      {"measurement": "viability, T/C", "setting": "[22]", "result": 84.9, "unit": "%"},
      {"measurement": "viability, T/C", "setting": "[23]", "result": 65.6, "unit": "%"},
      {"measurement": "viability, T/C", "setting": "[24]", "result": 12.3, "unit": "%"},
      {"measurement": "viability, T/C", "setting": "[25]", "result": 89.8, "unit": "%"},
      {"measurement": "viability, T/C", "setting": "[26]", "result": 105, "unit": "%"},
      {"measurement": "viability, T/C", "setting": "[27]", "result": 92.5, "unit": "%"},
      {"measurement": "viability, T/C", "setting": "[28]", "result": 79.2, "unit": "%"},
      {"measurement": "viability, T/C", "setting": "[29]", "result": 45.2, "unit": "%"},
      {"measurement": "viability, T/C", "setting": "[30]", "result": 2.9, "unit": "%"}
    ]}
  ]
}
